Results published in patent US6867211B2, “4-Pyridyl-and 2,4-pyrimidinyl-substituted pyrrole derivatives and their use in pharmacy” (Merckle GmbH, priority 2000, dated 2005).
Read-outs that look alike come from different tables or passages of the source.

Experiments:
[1] = target: T1, COX2 (from sheep placenta) (Ovis aries, UniProt P79208); assay: In vitro test system for determining the inhibition of cyclooxygenase-2 (COX2 from sheep placenta, PGE2 ELISA); type: biochemical; conditions: read-out: COX-2 IC50
T1 construct: COX2 (from sheep placenta) is preincubated at 4° C. with test substance for 10 min; from tissue; host or cells: sheep placenta
T1 sequence (P79208 17-603): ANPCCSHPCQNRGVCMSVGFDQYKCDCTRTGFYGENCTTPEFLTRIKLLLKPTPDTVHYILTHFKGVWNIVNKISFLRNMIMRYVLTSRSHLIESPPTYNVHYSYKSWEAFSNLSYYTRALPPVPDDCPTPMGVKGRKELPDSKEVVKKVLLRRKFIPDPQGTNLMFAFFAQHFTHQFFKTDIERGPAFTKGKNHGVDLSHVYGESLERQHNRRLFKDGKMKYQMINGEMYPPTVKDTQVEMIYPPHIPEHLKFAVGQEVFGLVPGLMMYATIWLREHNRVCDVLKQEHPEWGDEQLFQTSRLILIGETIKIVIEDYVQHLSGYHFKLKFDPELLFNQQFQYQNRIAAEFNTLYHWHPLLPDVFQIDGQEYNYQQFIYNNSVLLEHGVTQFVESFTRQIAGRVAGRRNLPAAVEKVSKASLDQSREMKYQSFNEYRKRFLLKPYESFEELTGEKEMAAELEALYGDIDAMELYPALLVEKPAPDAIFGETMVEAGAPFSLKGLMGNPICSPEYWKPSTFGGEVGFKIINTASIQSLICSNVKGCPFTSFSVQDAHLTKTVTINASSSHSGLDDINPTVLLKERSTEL
Procedure: In vitro Test System for Determining the Inhibition of Cyclooxygenase-2
COX2 (from sheep placenta) is preincubated at 4° C. with test substance for 10 min, then stimulated with arachidonic acid (5 μM) at 25° C. for 10 min. […] The determination is carried out at 3 dilutions (10^−7, 10^−6, 10^−5 M). The PGE2 concentrations are quantified by means of ELISA (see Mitchell J. A. et al., Proc. Nat. Acad. Sci. 90: 11693-11697 (1993)).

5-lipoxygenase = target: T2, 5-lipoxygenase (Homo sapiens, UniProt P09917); assay: In vitro test system for determining the inhibition of 5-lipoxygenase (LTB4 from human granulocytes, A 23187, ELISA); type: cell-based; conditions: human granulocytes; read-out: 5-LO IC50
T2 construct: Human granulocytes are used as a source of the 5-lipoxygenase; endogenous in cells; host or cells: human granulocytes isolated from heparinised blood on a Percoll gradient
T2 sequence (P09917 1-674): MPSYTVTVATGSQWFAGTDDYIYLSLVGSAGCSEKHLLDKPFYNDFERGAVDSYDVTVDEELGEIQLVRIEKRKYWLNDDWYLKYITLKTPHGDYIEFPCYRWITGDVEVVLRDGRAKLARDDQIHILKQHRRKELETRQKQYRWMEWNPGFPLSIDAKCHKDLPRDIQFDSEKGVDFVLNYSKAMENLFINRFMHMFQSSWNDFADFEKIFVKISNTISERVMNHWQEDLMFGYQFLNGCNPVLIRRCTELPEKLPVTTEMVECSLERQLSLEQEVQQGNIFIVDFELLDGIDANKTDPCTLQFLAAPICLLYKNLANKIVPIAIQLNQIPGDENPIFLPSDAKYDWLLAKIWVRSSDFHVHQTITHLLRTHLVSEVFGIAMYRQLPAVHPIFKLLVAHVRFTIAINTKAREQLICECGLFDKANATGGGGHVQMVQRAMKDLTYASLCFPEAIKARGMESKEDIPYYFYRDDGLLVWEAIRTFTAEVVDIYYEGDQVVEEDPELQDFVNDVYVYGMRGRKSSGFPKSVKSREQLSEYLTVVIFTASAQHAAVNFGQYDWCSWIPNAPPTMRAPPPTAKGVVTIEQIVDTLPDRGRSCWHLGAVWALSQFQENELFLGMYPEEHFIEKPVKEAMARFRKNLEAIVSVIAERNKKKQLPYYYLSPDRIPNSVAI
Procedure: In vitro Test System for Determining the Inhibition of 5-lipoxygenase
Human granulocytes are used as a source of the 5-lipoxygenase. LTB4 (leukotriene B4) is formed from endogenous arachidonic acid by means of stimulation with calcium ionophore A 23187. The granulocytes are isolated and the enzyme reaction is carried out according to known processes (see Arch. Pharm. Pharm. Med. Chem. 330, 307-312 (1997)).
The blood, which is protected from clotting with heparin, is centrifuged on a discontinuous Percoll® gradient and the granulocyte layer is pipetted off. After lysis of the erythrocytes, the granulocytes are washed a number of times and then adjusted to a specific cell count. The enzyme reaction is then started with calcium ionophore A 23187 in the presence or absence of the test substance after addition of Ca2+. The synthesis of the leukotrienes is stopped after 1.5 minutes. The samples are centrifuged off and the supernatant is diluted. LTB4 is determined quantitatively by means of ELISA.

TNFα [2] = assay: In vitro test procedure using PBMCs, LPS-stimulated, TNFα by ELISA; type: cell-based; conditions: Homo sapiens, PBMC; for inhibition at 1 µM: at 1 μmol; for inhibition at 10 µM: at 10 μmol
Procedure: (§1) In vitro Test Procedure Using PBMCs
(§2) The mononuclear cells (PBMCs) are isolated from human potassium-EDTA whole blood diluted 1:3 by means of density gradient centrifugation (Histopaque®-1.077). After 2 washing steps with DPBS buffer, the mononuclear cells are resuspended in macrophage-SFM medium and adjusted to a cell count of 1×10^6 cells/ml.
(§3) The PBMCs suspension (at 390 μl) is preincubated with test substance for 15 min at 37° C. in a CO2 incubator (5% CO2; 95% moisture-saturated air). The samples are subsequently stimulated for 4 hours with 1 μg/ml LPS (E.coli 026:B6) at 37° C. in a CO2 incubator (5% CO2, 95% moisture-saturated air). The reaction is ended by placing the samples on ice, addition of DPBS buffer and centrifugation (15880×g; 12 min). The supernatant is used for the quantification of IL-1β and TNFα by means of ELISA.

TNFα [3] = assay: In vitro test procedure using human whole blood, LPS-stimulated, TNFα by ELISA; type: cell-based; conditions: Homo sapiens; whole-blood method
Procedure: (§4) In vitro Test Procedure Using Human Whole Blood
(§5) Human potassium-EDTA whole blood (at 400 μl) is preincubated with test substance for 15 min. at 37° C. in a CO2 incubator (5% CO2; 95% moisture-saturated air). The samples are then stimulated for 4 hours with 1 μg/ml of LPS (E. coli 026:B6) at 37° C. in a CO2 incubator (5% CO2; 95% moisture-saturated air). The reaction is ended by placing the samples on ice, addition of DPBS buffer and subsequent centrifugation (1000×g; 15 min). The plasma supernatant is used for the quantification of IL-1β and TNFα by means of ELISA.

IL-1β [4] = assay: In vitro test procedure using PBMCs, LPS-stimulated, IL-1β by ELISA; type: cell-based; conditions: Homo sapiens, PBMC
Procedure: as §1, §2, §3

IL-1β [5] = assay: In vitro test procedure using human whole blood, LPS-stimulated, IL-1β by ELISA; type: cell-based; conditions: Homo sapiens; whole-blood method
Procedure: as §4, §5

cyclooxygenase-1 = target: T3, cyclooxygenase-1 (Homo sapiens, UniProt P23219); assay: In vitro test system for determining the inhibition of cyclooxygenase-1 (PGE2 from human platelets, calcium ionophore, ELISA); type: cell-based; conditions: for IC50: human platelets, read-out: COX-1 IC50
T3 construct: endogenous in cells; host or cells: human platelets isolated on a discontinuous Percoll gradient
Procedure: In vitro Test System for Determining the Inhibition of Cyclooxygenase-1
In this test system, the amount of prostaglandin E2 formed from human platelets after addition of calcium ionophore is determined by means of ELISA. In this process, the platelets are obtained after centrifugation on a discontinuous Percoll® gradient. The enzyme reaction and the determination of the metabolites formed is carried out in principle as in the determination of 5-lipoxygenase inhibition. Differences exist with respect to the incubation time. Furthermore, the addition of a thromboxane synthesis inhibitor is necessary (see Arch. Pharm. Pharm. Med. Chem. 330, 307-312 (1997)).

[6] = target: T1, COX2 (from sheep placenta); assay: In vitro test system for determining the inhibition of cyclooxygenase-2 (COX2 from sheep placenta, PGE2 ELISA); type: biochemical; conditions: for IC50: value in COX-2 column
[7] = 4 h, read-out: TNFα percentage inhibition
[8] = at 10 μmol, cells marked 'PBMC:' / 'whole-blood method:'

T3 sequence (P23219 24-599): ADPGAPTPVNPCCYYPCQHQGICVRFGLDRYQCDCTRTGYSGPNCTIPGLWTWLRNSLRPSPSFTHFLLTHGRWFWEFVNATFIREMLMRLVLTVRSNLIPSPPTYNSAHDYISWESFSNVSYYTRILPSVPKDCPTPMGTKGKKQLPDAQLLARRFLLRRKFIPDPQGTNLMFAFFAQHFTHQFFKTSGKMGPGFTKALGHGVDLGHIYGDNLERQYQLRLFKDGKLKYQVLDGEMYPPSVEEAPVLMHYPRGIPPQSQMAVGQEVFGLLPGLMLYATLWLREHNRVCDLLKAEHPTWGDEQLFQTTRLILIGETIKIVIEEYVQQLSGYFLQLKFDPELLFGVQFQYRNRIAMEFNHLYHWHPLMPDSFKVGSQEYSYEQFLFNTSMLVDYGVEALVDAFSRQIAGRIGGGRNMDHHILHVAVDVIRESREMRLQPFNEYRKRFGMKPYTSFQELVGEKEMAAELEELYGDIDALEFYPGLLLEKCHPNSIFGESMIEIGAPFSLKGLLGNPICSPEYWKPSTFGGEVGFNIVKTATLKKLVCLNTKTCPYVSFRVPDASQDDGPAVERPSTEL

Row | Structure (SMILES) | IC50 [1] | IC50 (5-lipoxygenase) | IC50 (TNFα [2]) | IC50 (TNFα [3]) | IC50 (IL-1β [4]) | IC50 (IL-1β [5]) | IC50 (cyclooxygenase-1) | COX-1 percentage inhibition (cyclooxygenase-1; at 10 μmol) | inhibition at 0.1 µM (TNFα [2]; 4 h, at 0.1 μmol, read-out: TNFα percentage inhibition) | inhibition at 1 µM (TNFα [2]; [7]) | inhibition at 10 µM (TNFα [2]; [7]) | COX-2 percentage inhibition [6, 8] | IC50 ([6]; cell marked 'PBMC:') | IC50 ([6]; cell marked 'whole-blood method:') | COX-1 percentage inhibition (cyclooxygenase-1; at 1.0 μmol) | inhibition at 1 µM (IL-1β [4]; 4 h, at 1 μmol, read-out: IL-1β percentage inhibition) | COX-2 percentage inhibition ([6]; at 1 μmol, cell marked 'PBMC:')
1 | OCc1c(-c2ccncc2)c(-c2ccc(F)cc2)n2c1CCC2 [Example 3, [3-(4-Fluorophenyl)-2-(4-pyridyl)-6,7-dihydro-5H-pyrrolizin-1-yl]methanol] | 5.7 µM | 3.7 µM | 4 µM | 28 µM | 5 µM | 22 µM |  |  |  |  |  |  |  |  |  |  | 
2 | Cc1c(-c2ccncc2)c(-c2ccc(F)cc2)n2c1CCC2 [Example 4, 5-(4-Fluorophenyl)-7-methyl-6-(4-pyridyl)-2,3-dihydro-1H-pyrrolizine] | 3.4 µM | 2.4 µM | 6 µM | 41 µM | 5.7 µM | 59 µM | 1.9 µM |  |  |  |  |  |  |  |  |  | 
3 | CCOC(=O)c1c(-c2ccncc2)c(-c2ccc(F)cc2)n2c1SCC2 [Example 10A, Ethyl 5-(4-fluorophenyl)-6-(4-pyridyl)-2,3-dihydropyrrolo-[2,1-b]-thiazole-7-carboxylate] | 6.1 µM | 0.065 µM | 10 µM | 30 µM | > 100 µM | 30 µM | 3.4 µM |  |  |  |  |  |  |  |  |  | 
4 | Fc1ccc(-c2c(-c3ccncc3)cc3n2CCCC3)cc1 [Example 18, 3-(4-Fluorophenyl)-2-(4-pyridyl)-5,6,7,8-tetrahydroindolizine] | 1.6 µM | 3.3 µM |  | 37 µM | 7.5 µM | 36 µM |  | 10/35% | 16% | 33% | 65% |  |  |  |  |  | 
5 | Cc1c(-c2ccc(F)cc2)c(-c2ccncc2)n2c1CCC2 [Example 21, 6-(4-Fluorophenyl)-7-methyl-5-(4-pyridyl)-2,3-dihydro-1H-pyrrolizine] |  |  | 26 µM |  | 5.6 µM | 37 µM | 0.13 µM |  |  |  |  | 33% | 0.34 µM | 6 µM |  |  | 
6 | CC1(C)CSc2c(-c3ccncc3)c(-c3ccc(F)cc3)cn2C1 [Example 23, 7-(4-Fluorophenyl)-3,3-dimethyl-8-pyridin-4-yl-3,4-dihydro-2H-pyrrolo[2,1-b][1,3]thiazine] |  | 0.05 µM |  |  |  |  | 3.5 µM | 83% |  | 0% | 79% | 50% | 4 µM |  | 0% | 19% | 10%
